Data as given in patent US20130150354A1, “NEW SELECTIVE CCR2 ANTAGONISTS” (BOEHRINGER INGELHEIM INTERNATIONAL GMBH, priority 2011, published 2013).

Assays:
CCR2 = target: T1, CCR2 (Homo sapiens, UniProt P41597); assay: CCR2 receptor membrane binding assay (THP-1 membranes, 125I-MCP-1, SPA beads); conditions: THP-1 cell membranes, 125I-MCP-1, 8 h; read-out: hKi [nM] (CCR2)
T1 construct: Membranes were prepared from THP-1 cells; endogenous in cells; host or cells: THP-1 (human acute monocytic leukaemia cells), membrane preparation
T1 sequence (P41597 1-360 isoform P41597-2): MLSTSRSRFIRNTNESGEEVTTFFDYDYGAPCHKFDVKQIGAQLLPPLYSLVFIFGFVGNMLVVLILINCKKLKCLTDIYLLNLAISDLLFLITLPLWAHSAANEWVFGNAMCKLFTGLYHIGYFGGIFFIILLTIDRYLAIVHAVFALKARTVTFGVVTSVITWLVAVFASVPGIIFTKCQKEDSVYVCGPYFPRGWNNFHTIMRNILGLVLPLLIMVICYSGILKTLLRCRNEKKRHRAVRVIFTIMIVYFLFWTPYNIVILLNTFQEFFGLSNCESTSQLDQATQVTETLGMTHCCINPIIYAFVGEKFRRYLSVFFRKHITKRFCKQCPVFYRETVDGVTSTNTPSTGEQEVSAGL
Protocol: The above exemplary substances have been tested for binding to CCR2 using a binding assay as outlined herein below:
THP-1 cells (human acute monocytic leukaemia cells) were cultured under standardized conditions at 37° C. and 5% CO2 in a humidified incubator. THP-1 cells were cultivated in RPMI 1640 medium (Gibco 21875) containing 1% MEM-NEAA (Gibso 11140) 2 mM L-glutamine, 1.5 g/L sodium bicarbonate, 4.5 g/L glucose, 10 mM HEPES and 1.0 mM sodium pyruvate, 90%; 10% fetal calf serum (FCS Gibco 10500-064).
Membranes were prepared from THP-1 cells. THP-1 cells were centrifuged at 300×g at 4° C. for 10 min. The cell pellet was resuspendet in Phosphate Buffer Saline (PBS, including 10 μM Pefabloc and a protease inhibitor mix ‘complete’, Boehringer Mannheim (1 tablet/50 ml)), to a concentration of […]. The membrane preparation was performed by disrupting the cells by nitrogen […] (at 50 bar, for 1 h) in a “Nitrogen Bombe” (Parr Instrument). Cell debris was removed by centrifugation (800×g at 4° C., 1 min). The supernatant was centrifuged at 80000×g, 4° C. for 30 min to sediment the cell membranes. Usually 50 mg of protein (Bradford assay) were yielded from 1×10E9 cells. The membranes were resuspendet in 25 mM HEPES, 25 mM MgCl2, 1 mM CaCl2, 10% Glycerine for storage in aliquots at −80° C. in 25 mM HEPES, 25 mM MgCl2, 1 mM CaCl2, 10% Glycerine and stored at −80° C.
Perkin Elmer NEX 332 Jod^125 MCP-1, Stock: 2200 Ci/mmol solved in 2000 μl assay buffer, stored at −20° C. THP-1 membrane were adjusted with 25 mM HEPES, pH 7.2; 5 mM MgCl2; 0.5 mM CaCl2; 0.2% BSA assay buffer to a concentration of 2.5 μg/15 μl. Amersham Biosciences PVT-WGA Beads (RPNQ0001) were adjusted with assay buffer to a concentration of 0.24 mg/30 μl. For preparation of the membrane-bead-suspension membranes and beads were incubated for 30 min at RT under rotation (60 rpm) with a ratio of 1:2. Test compounds dissolved in 100% DMSO to a concentration of 10 mM and are further diluted with 100% DMSO to 1 mM. All additional compound dilutions were obtained with assay buffer, final 1% DMSO. Compounds, membrane-bead-suspension and [^125]MCP-1 (ca. 25000 cpm/10 μl) were incubated. Bound radioactivity was determined by scintillation counter after 8 h. Determination of affinity of test compounds (dissociation constant hKi) is calculated by iterative fitting of experimental data using the “easy sys” program, which is based on law of mass action (Schittkowski K. (1994), Numerische Mathematik, Vol. 68, 129-142).

human CCR5 = target: T2, human CCR5 (Homo sapiens, UniProt P51681); assay: CCR5 receptor membrane binding assay (CHO (Gα16) human CCR5 membranes, [125I]RANTES, SPA beads); conditions: 6 h, read-out: hKi [nM] (CCR5)
T2 construct: expressed in transfected cells; host or cells: CHO cells co-expressing Gα16, grown under puromycin and zeocin selection; membrane preparation
T2 sequence (P51681 whole entry): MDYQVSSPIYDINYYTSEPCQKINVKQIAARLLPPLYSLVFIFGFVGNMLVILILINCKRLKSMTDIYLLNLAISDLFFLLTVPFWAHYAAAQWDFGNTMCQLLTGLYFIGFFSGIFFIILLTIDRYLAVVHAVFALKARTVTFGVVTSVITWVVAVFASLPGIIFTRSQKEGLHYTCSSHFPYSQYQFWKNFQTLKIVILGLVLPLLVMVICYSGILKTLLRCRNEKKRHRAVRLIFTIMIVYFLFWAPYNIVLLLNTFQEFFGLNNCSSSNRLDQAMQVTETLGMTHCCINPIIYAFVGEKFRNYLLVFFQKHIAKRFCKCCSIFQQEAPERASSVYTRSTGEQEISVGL
Protocol: The above exemplary substances have been tested for binding to CCR5 using a binding assay as outlined herein below:
CHO, (Gα16) human CCR5 cells were cultured under standardized conditions at 37° C. and 5% CO2 in a humidified incubator. CHO (Gα16) human CCR5 cells were cultivated in Ham's F12 (Invitrogen; #31765068) supplemented with 10 µg/ml Puromycin (Invitrogen; #A11139-03), 200 µg/ml Zeocin (Invitrogen; #45-0003) and 10% FCS (Gibco; #10500-064).
Membranes were prepared from CHO (Gα16) human CCR5 cells. Cells were cultured on […] plates (Nunc; #166508) 2-3 days before membrane preparation (usually 80-100 plates to obtain 80 mg protein).
Cells were scraped off the plates with a big scraper and washed with 2×5 ml ice cold Phosphate Buffer Saline (PBS; Invitrogen; #14040-174). Cell suspension was collected in a glass bottle (on ice). Cell suspension was harvested at 1400 rpm and 4° C. for 10 min and washed in PBS. Cell pellet was resuspended in 40 ml PBS with protease inhibitor mix ‘complete’ (Roche; #11873580001; 1 tablet/50 ml).
For gentle cell disruption the membrane preparation was performed by using a homogenizer (potter). Cells were homogenized for 5-10 min.
Membranes were centrifuged at 1000 rpm and 4° C. for 5 min. Supernatant (=membrane) was harvested in a new falcon tube and remaining cell pellet homogenized again for 5-10 min with PBS with protease inhibitor mix and centrifuged. Collected supernatant was centrifuged at 40000 rpm and 4° C. for 30 min to sediment the cell membranes.
The membranes were resuspended in 25 mM HEPES, 25 mM MgCl2, 1 mM CaCl2, 10% Glycerine for storage in aliquots at −80° C. Membranes were diluted to a concentration of 5 mg/ml (Bradford Assay).
[^125I]RANTES, Stock: 1825 Ci/mmol, 25 μCi (Bio Trend #A3-AI-676) was solved in 1000 μl assay buffer (100 mM NaCl; 10 mM MgCl2; 50 mM Tris-HCl; 1 mM EDTA; 0.1% BSA, pH 7.6), stored at −20° C.
CHO (Gα16) human CCR5 membrane were solved on ice and adjusted with assay buffer to a concentration of 2.5 μg/15 μl.
Amersham Biosciences PVT-WGA Beads (GE Healthcare; #RPNQ0001) were adjusted with assay buffer to a concentration of 8 mg/ml. For preparation of the membrane-bead-suspension, membranes and beads were incubated for 30 min at RT under rotation with a ratio of 1:2.
Test compounds dissolved in 100% DMSO to a concentration of 10 mM and are further diluted with 100% DMSO to 1 mM. All additional compound dilutions were obtained with assay buffer, final 1% DMSO. 7 μl compound dilution, 45 μl membrane-bead-suspension and 10 μl [^125I]RANTES (ca. 20000 cpm/10 μl) were incubated at RT. Bound radioactivity was determined by scintillation counter after 6 h. Determination of affinity of test compounds (dissociation constant Ki) is calculated by iterative fitting of experimental data using the “easy sys” program, which is based on law of mass action (Schittkowski K. (1994), Numerische Mathematik, Vol. 68, 129-142).

Ki (CCR2) [nM]	Ki (human CCR5) [nM]	SMILES
1	48	Cc1c(NC[C@H]2CCC[C@@H](c3ccc(OC(F)(F)F)cc3)O2)ncnc1C(=O)N1CCC(N2CCO[C@H]3COCC[C@H]32)CC1 (single isomer, unassigned) [Example 33]
26	1140	Cc1c(NC[C@H]2CCC[C@@H](c3ccc(OC(F)(F)F)cc3)O2)ncnc1C(=O)N1CCC(N2CCO[C@@H]3COCC[C@H]32)CC1 (single isomer, unassigned) [Example 34]
1	160	Cc1c(Nc2ccc(Cl)c(Cl)c2)nc(C2CC2)nc1C(=O)N1CCC(N2CCO[C@H]3COCC[C@H]32)CC1 (single isomer, unassigned) [Example 35a]
9	1350	Cc1c(Nc2ccc(Cl)c(Cl)c2)nc(C2CC2)nc1C(=O)N1CCC(N2CCO[C@@H]3COCC[C@@H]32)CC1 (single isomer, unassigned) [Example 35b]
7	1550	COc1nc(Nc2cccc(C(F)(F)F)c2)c(C)c(C(=O)N2CCC(N3CCO[C@H]4COCC[C@H]43)CC2)n1 (single isomer, unassigned) [Example 36a]
42	2100	COc1nc(Nc2cccc(C(F)(F)F)c2)c(C)c(C(=O)N2CCC(N3CCO[C@@H]4COCC[C@@H]43)CC2)n1 (single isomer, unassigned) [Example 36b]
1	300	COc1nc(Nc2ccc(Cl)c(Cl)c2)c(C)c(C(=O)N2CCC(N3CCO[C@H]4COCC[C@H]43)CC2)n1 (single isomer, unassigned) [Example 37a]
6	1000	COc1nc(Nc2ccc(Cl)c(Cl)c2)c(C)c(C(=O)N2CCC(N3CCO[C@@H]4COCC[C@@H]43)CC2)n1 (single isomer, unassigned) [Example 37b]
3	260	Cc1nc(Nc2ccc(Cl)c(Cl)c2)c(C)c(C(=O)N2CCC(N3CCO[C@H]4COCC[C@H]43)CC2)n1 (single isomer, unassigned) [Example 38a]
1	460	Cc1c(Nc2cccc(C(F)(F)F)c2)nc(C2CC2)nc1C(=O)N1CCC(N2CCO[C@H]3COCC[C@H]32)CC1 (single isomer, unassigned) [Example 39a]
31		Cc1c(Nc2cccc(C(F)(F)F)c2)nc(C2CC2)nc1C(=O)N1CCC(N2CCO[C@@H]3COCC[C@@H]32)CC1 (single isomer, unassigned) [Example 39b]
9	640	Cc1nc(Nc2cccc(C(F)(F)F)c2)c(C)c(C(=O)N2CCC(N3CCO[C@H]4COCC[C@H]43)CC2)n1 (single isomer, unassigned) [Example 40b]
2	460	Cc1c(C(=O)N2CCC(N3CCO[C@@H]4COCC[C@@H]43)CC2)ncnc1N1COc2ccc(C(F)(F)F)cc2C1 (single isomer, unassigned) [Example 41]
15	1770	Cc1c(NC[C@H]2CCC[C@@H](c3ccc(C(F)(F)F)cc3)O2)ncnc1C(=O)N1CCC(N2CCO[C@@H]3COCC[C@@H]32)CC1 [Example 1]
0.5	460	Cc1c(NC[C@H]2CCC[C@@H](c3ccc(C(F)(F)F)cc3)O2)ncnc1C(=O)N1CCC(N2CCO[C@H]3COCC[C@H]32)CC1 [Example 2]
4	2090	Cc1c(C(=O)N2CCC(N3CCO[C@H]4COCC[C@H]43)CC2)ncnc1N1CCc2ccc(C(F)(F)F)cc2C1 [Example 3]
4	540	Cc1c(Nc2ccc(Cl)c(Cl)c2)ncnc1C(=O)N1CCC(N2CCO[C@H]3COCC[C@H]32)CC1 [Example 4]
9	1460	Cc1c(Nc2cccc(C(F)(F)F)c2)ncnc1C(=O)N1CCC(N2CCO[C@H]3COCC[C@H]32)CC1 [Example 5]
0.3	38	Cc1ccc([C@@H]2CCC[C@H](CNc3ncnc(C(=O)N4CCC(N5C[C@H]6C[C@@H](N(C)S(C)(=O)=O)C[C@H]6C5)CC4)c3C)O2)cc1 [Example 6]
0.6	420	Cc1c(C(=O)N2CCC(N3C[C@H]4C[C@@H](N(C)S(C)(=O)=O)C[C@H]4C3)CC2)ncnc1N1CCc2ccc(C(F)(F)F)cc2C1 [Example 7]
0.1	9	Cc1c(NC[C@H]2CCC[C@@H](c3ccc(OC(F)(F)F)cc3)O2)ncnc1C(=O)N1CCC(N2C[C@H]3C[C@@H](N(C)S(C)(=O)=O)C[C@H]3C2)CC1 [Example 8]
0.2	21	Cc1c(NC[C@H]2CCC[C@@H](c3ccc(C(F)(F)F)cc3)O2)ncnc1C(=O)N1CCC(N2C[C@H]3C[C@@H](N(C)S(C)(=O)=O)C[C@H]3C2)CC1 [Example 9]
0.6	92	Cc1c(Nc2ccc(Cl)c(Cl)c2)ncnc1C(=O)N1CCC(N2C[C@H]3C[C@@H](N(C)S(C)(=O)=O)C[C@H]3C2)CC1 [Example 10]
0.8	15	Cc1c(NC[C@H]2CCC[C@@H](c3ccccc3)C2)ncnc1C(=O)N1CCC(N2C[C@H]3C[C@@H](N(C)S(C)(=O)=O)C[C@H]3C2)CC1 [Example 11]
